Measured values: the NIST ThermoML archive (doi:10.1021/je060271a)
Where “and” joins values, the source holds several entries; their conditions need not be identical. Equal entries are not always repeated.

Conditions: 303.15 K, Liquid, Vibrating tube method

CCCCCC(=O)OCC(COC(=O)CCCCC)(COC(=O)CCCCC)COC(=O)CCCCC [pentaerythritol tetrahexanoate]
Conditions	mass density
228.5 kPa	988.5 kg/m3
228.8 kPa	988.5 kg/m3 and 988.4 kg/m3
229 kPa	988.6 kg/m3
229.5 kPa	988.6 kg/m3
229.7 kPa	988.5 kg/m3
230 kPa	988.5 kg/m3
230.2 kPa	988.5 kg/m3
230.4 kPa	988.5 kg/m3
230.8 kPa	988.5 kg/m3
230.9 kPa	988.5 kg/m3
231.1 kPa	988.3 kg/m3
231.4 kPa	988.5 kg/m3
231.8 kPa	988.4 kg/m3
233.2 kPa	988.5 kg/m3
233.5 kPa	988.4 kg/m3 and 988.5 kg/m3
242.4 kPa	988.5 kg/m3
244 kPa	988.5 kg/m3
244.1 kPa	988.6 kg/m3
244.5 kPa	988.5 kg/m3
247.3 kPa	988.5 kg/m3
247.4 kPa	988.4 kg/m3
247.8 kPa	988.5 kg/m3
248.1 kPa	988.4 kg/m3 and 988.6 kg/m3
248.3 kPa	988.5 kg/m3
249.7 kPa	988.5 kg/m3
250.2 kPa	988.5 kg/m3
250.4 kPa	988.4 kg/m3
250.6 kPa	988.5 kg/m3
250.7 kPa	988.6 kg/m3
262 kPa	988.6 kg/m3
283.9 kPa	988.4 kg/m3
284.4 kPa	988.6 kg/m3
284.8 kPa	988.6 kg/m3 and 988.5 kg/m3
287.9 kPa	988.5 kg/m3
288.2 kPa	988.6 kg/m3
288.7 kPa	988.6 kg/m3
289.1 kPa	988.6 kg/m3
289.6 kPa	988.6 kg/m3 and 988.5 kg/m3
293.3 kPa	988.6 kg/m3
294 kPa	988.7 kg/m3 and 988.6 kg/m3
294.3 kPa	988.6 kg/m3
294.8 kPa	988.5 kg/m3
295 kPa	988.5 kg/m3
295.2 kPa	988.4 kg/m3
295.9 kPa	988.6 kg/m3 and 988.5 kg/m3
296.4 kPa	988.6 kg/m3 and 988.5 kg/m3
296.9 kPa	988.6 kg/m3
297.3 kPa	988.4 kg/m3
297.6 kPa	988.5 kg/m3
305.4 kPa	988.5 kg/m3
305.8 kPa	988.6 kg/m3
305.9 kPa	988.6 kg/m3
312.9 kPa	988.4 kg/m3
313.2 kPa	988.6 kg/m3
314.1 kPa	988.6 kg/m3
314.5 kPa	988.5 kg/m3
314.8 kPa	988.5 kg/m3
315.2 kPa	988.5 kg/m3
315.8 kPa	988.6 kg/m3
324.2 kPa	988.6 kg/m3
324.7 kPa	988.5 kg/m3
329.4 kPa	988.6 kg/m3
329.9 kPa	988.6 kg/m3
330.4 kPa	988.7 kg/m3
330.8 kPa	988.6 kg/m3
331.1 kPa	988.6 kg/m3
331.5 kPa	988.5 kg/m3
331.6 kPa	988.6 kg/m3
332 kPa	988.6 kg/m3
332.7 kPa	988.6 kg/m3 and 988.7 kg/m3
334.1 kPa	988.7 kg/m3
334.4 kPa	988.5 kg/m3
334.6 kPa	988.5 kg/m3
335.1 kPa	988.6 kg/m3
335.6 kPa	988.6 kg/m3
335.7 kPa	988.6 kg/m3
336.2 kPa	988.6 kg/m3
336.5 kPa	988.6 kg/m3
337 kPa	988.6 kg/m3
337.6 kPa	988.6 kg/m3
337.9 kPa	988.6 kg/m3
338.1 kPa	988.6 kg/m3
338.3 kPa	988.5 kg/m3
339 kPa	988.5 kg/m3
340 kPa	988.6 kg/m3
341.5 kPa	988.5 kg/m3
342.1 kPa	988.6 kg/m3
342.8 kPa	988.7 kg/m3
343.1 kPa	988.5 kg/m3
343.3 kPa	988.6 kg/m3
343.8 kPa	988.5 kg/m3
389.7 kPa	988.6 kg/m3
391.9 kPa	988.5 kg/m3
393.8 kPa	988.6 kg/m3
396.4 kPa	988.7 kg/m3
398.9 kPa	988.6 kg/m3
401 kPa	988.6 kg/m3
403.1 kPa	988.6 kg/m3
405.6 kPa	988.6 kg/m3
407.9 kPa	988.5 kg/m3
410.3 kPa	988.7 kg/m3
413.3 kPa	988.6 kg/m3
415.4 kPa	988.6 kg/m3
418.3 kPa	988.7 kg/m3
420.6 kPa	988.6 kg/m3
423.2 kPa	988.6 kg/m3
426.5 kPa	988.7 kg/m3
428.6 kPa	988.7 kg/m3
431 kPa	988.6 kg/m3
434 kPa	988.6 kg/m3
436.4 kPa	988.7 kg/m3
439.4 kPa	988.6 kg/m3
442.5 kPa	988.7 kg/m3
445.1 kPa	988.7 kg/m3
448.1 kPa	988.6 kg/m3
451.4 kPa	988.6 kg/m3
579.1 kPa	988.9 kg/m3
583.8 kPa	988.9 kg/m3
588.3 kPa	988.7 kg/m3
593.5 kPa	988.7 kg/m3
598.6 kPa	988.6 kg/m3
604.3 kPa	988.7 kg/m3
609.3 kPa	988.6 kg/m3
614.4 kPa	988.7 kg/m3
620.8 kPa	988.8 kg/m3
625.5 kPa	988.7 kg/m3
631 kPa	988.8 kg/m3
635.9 kPa	988.8 kg/m3
642.5 kPa	988.8 kg/m3
648.3 kPa	988.8 kg/m3
653.8 kPa	988.8 kg/m3
660.6 kPa	988.8 kg/m3
666.7 kPa	988.8 kg/m3
672.6 kPa	988.8 kg/m3
679.9 kPa	988.7 kg/m3
686 kPa	988.7 kg/m3
838 kPa	988.9 kg/m3
872.9 kPa	989 kg/m3
882.8 kPa	988.9 kg/m3
890.8 kPa	988.9 kg/m3
899 kPa	988.9 kg/m3
907.3 kPa	989 kg/m3
916.8 kPa	989 kg/m3
925 kPa	988.8 kg/m3
933.2 kPa	989 kg/m3
